Test results: ChEMBL document CHEMBL1667835, “Optimisation of 6-substituted isoquinolin-1-amine based ROCK-I inhibitors” (Bioorg Med Chem Lett, 2011)

Experiments:
[1] = Oral bioavailability in C57 mouse; type: ADME, organism-based; conditions: in vivo
[2] = Half life in C57 mouse; type: ADME, organism-based; conditions: in vivo
[3] = Plasma clearance in C57 mouse; type: ADME, organism-based
[4] = Volume of distribution at steady state in C57 mouse; type: ADME, organism-based; conditions: in vivo, read-out: Vdss
[5] = Intrinsic clearance in mouse liver microsomes assessed per mg of protein; type: ADME, Microsome
[6] = Apparent permeability from apical to basolateral side of human Caco2 cells; type: ADME, cell-based; conditions: Caco-2, read-out: permeability
Liver microsomes [7] = assay: Intrinsic clearance in human liver microsomes assessed per mg of protein; type: ADME, Microsome
Hepatocyte [8] = assay: Intrinsic clearance in rat hepatocytes assessed per 1 x 10^6 cells; type: ADME, cell-based, Liver
Liver microsomes [9] = assay: Intrinsic clearance in rat liver microsomes assessed per mg of protein; type: ADME, Microsome
[10] = Apparent permeability from basolateral to apical side of human Caco2 cells; type: ADME, cell-based; conditions: Caco-2, read-out: permeability
Hepatocyte [11] = assay: Intrinsic clearance in human hepatocytes assessed per 1 x 10^6 cells; type: ADME, cell-based, Liver

Work on `Nc1nccc2cc(O[C@H]3CCCNC3)ccc12` yielded a bioavailability [1] of over 75%.
With `Nc1nccc2c(S(=O)(=O)N3CCCNCC3)cccc12` the half-life [2] was 45 min, the bioavailability [1] was 57% and the clearance [3] was 34 mL/min/kg. For the same compound, the Vd [4] was 2.4 L/kg.
`O=c1[nH]ccc2cc(O[C@H]3CCCNC3)ccc12` showed a clearance [5] of 17 µL/min/mg, a Papp A→B [6] of 14.3 ×10⁻⁶ cm/s and a clearance (Liver microsomes [7]) of under 12 µL/min/mg. The clearance (Hepatocyte [8]) was under 6 µL/min/1e6 cells, the clearance (Liver microsomes [9]) was 24 µL/min/mg and the Papp B→A [10] was 11.2 ×10⁻⁶ cm/s. For the same compound, the clearance (Hepatocyte [11]) was 2 µL/min/1e6 cells.
With `c1ccc(CN2CCC[C@H](Oc3ccc4cnccc4c3)C2)cc1` the Papp A→B [6] was 11.6 ×10⁻⁶ cm/s, the clearance (Hepatocyte [8]) was 21 µL/min/1e6 cells and the Papp B→A [10] was 17.6 ×10⁻⁶ cm/s.
